These results are taken from paper PMC7654703 (ACS chemical biology, 2020).

Data set [1] has as its system TNFα-mediated death of WEHI-13VAR cells. In words: WEHI-13VAR cell viability assay. It counts as cell-based, mouse. As to conditions: pre-incubation of TNFα with 20 μM SPD304 alone; final 20 nM after dilution.
The conditions of data set [2]: optical sensor assay; cited from earlier work.
The target in a further data set is TNFα-TNFR1 interaction (Homo sapiens, UniProt P01375). In words: TNFα-TNFR1 competition ELISA. The conditions noted are these: 100 μM SPD304 alone. It counts as binding. In general terms: ELISA stands for enzyme-linked immunosorbent assay.
Data set [3] addresses bicyclic 19-mer peptide (synthetic construct). The conditions noted are these: cited from earlier work.
For another data set, the target named is TNFα trimer (Homo sapiens, UniProt P01375). In words: TNFα oligomerization state by SEC. It counts as biochemical. The conditions noted are these: 1 μM TNFα, additive without peptide (0.05% TWEEN20, one hour RT; 10 μM SPD304). (SEC sorts molecules by how far they enter the pores of the column.)
Sequence of TNFα trimer (P01375 77-233 limits assumed): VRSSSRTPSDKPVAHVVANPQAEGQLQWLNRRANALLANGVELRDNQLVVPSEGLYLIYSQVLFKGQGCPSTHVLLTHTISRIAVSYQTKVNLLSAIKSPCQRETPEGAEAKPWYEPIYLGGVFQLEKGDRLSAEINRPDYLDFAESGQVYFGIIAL

Sequence of TNFα (P01375 77-233): as the sequence (P01375 77-233 limits assumed) above
Sequence of TNFα-TNFR1 interaction (P01375 77-233 limits assumed): as above

Consider `Cc1cc2occ(CN(C)CCN(C)Cc3cn(-c4cccc(C(F)(F)F)c4)c4ccccc34)c(=O)c2cc1C` [SPD304], for which the “block of TNFα-mediated cell death by additive alone” value in data set [1] is on record as “did not substantially block”. In addition, the “critical aggregation concentration (CAC)” value in data set [2] is 10 µM. Also, at TNFα-TNFR1 interaction, the “TNFα binding to TNFR1 blocked” value was ~ 30%. Consider TNFα (from UniProt P01375), for which, in data set [3], the dissociation constant Kd is 5 nM. For TWEEN20, on TNFα trimer, the “effect of additive alone on TNFα trimer by SEC” value is “did not change”.

One may read the Kd as the free concentration of one partner at which half of the binding sites on the other are occupied at equilibrium, for simple one-to-one binding.
